According to the supplement of paper PMC11061612:

Assays:
[1] = system: HCT-116 (Colorectal Carcinoma); assay: Bliss excess, mean over the matrix (fraction); higher = more synergy
Summary of the method: (§1)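 Cell lines grown in DMEM/F12 or RPMI with 10% FBS were plated in 1536-well plates and held 24 hours at 37°C, 5% CO2 before 72 hours of exposure to two-drug dose matrices, with DMSO typically at 0.2%. CellTiter-Glo 2.0 luminescence gave viability, which was converted to inhibition. Vehicle wells were set to 0 and blank wells to 1. Combination Emax is the second-highest inhibition in the matrix, and Bliss excess is the observed combination effect minus the expected EA + EB − EA·EB, where EA and EB are the single-agent effects.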

H4 (Low Grade Glioma) [2] = assay: as above
Summary of the method: as §1

[3] = system: MEG-01 (Chronic Myelogenous Leukemia); assay: as above
Summary of the method: as §1

[4] = system: SW48 (Colorectal Carcinoma); assay: as above
Summary of the method: as §1

MSTO-211H (Mesothelioma) [5] = assay: as above
Summary of the method: as §1

[6] = system: CAL-39 (Other Solid Carcinomas); assay: as above
Summary of the method: as §1

[7] = system: SNG-M (Endometrial Carcinoma); assay: combination Emax (second highest fraction inhibited in the dose matrix, 72 h); higher = more inhibition; extreme values may be limits of the assay
Summary of the method: as §1

CS1 (Chondrosarcoma) = assay: as above
Summary of the method: as §1

[8] = system: SW948 (Colorectal Carcinoma); assay: as above
Summary of the method: as §1

[9] = system: SK-UT-1 (Other Solid Carcinomas); assay: as above
Summary of the method: as §1

HCC38 (Breast Carcinoma) = assay: as above
Summary of the method: as §1

H4 (Low Grade Glioma) [10] = assay: as above
Summary of the method: as §1

SK-MEL-1 (Melanoma) = assay: as above
Summary of the method: as §1

[11] = system: MEG-01 (Chronic Myelogenous Leukemia); assay: as above
Summary of the method: as §1

[12] = system: SW48 (Colorectal Carcinoma); assay: as above
Summary of the method: as §1

[13] = system: WSU-DLCL2 (B-Cell Non-Hodgkin's Lymphoma); assay: as above
Summary of the method: as §1

EW-22 (Ewing's Sarcoma) = assay: as above
Summary of the method: as §1

MSTO-211H (Mesothelioma) [14] = assay: as above
Summary of the method: as §1

[15] = system: D-283MED (Other Solid Carcinomas); assay: as above
Summary of the method: as §1

[16] = system: P31-FUJ (Acute Myeloid Leukemia); assay: as above
Summary of the method: as §1
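For Bliss excess, mean over the matrix in this document: after 72 h of two-drug dosing.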

Compound | Bliss excess [1] | Bliss excess (H4 (Low Grade Glioma) [2]) | Bliss excess [3] | Bliss excess [4] | Bliss excess (MSTO-211H (Mesothelioma) [5]) | Bliss excess [6] | combination Emax [7] | combination Emax (CS1 (Chondrosarcoma)) | combination Emax [8] | combination Emax [9] | combination Emax (HCC38 (Breast Carcinoma)) | combination Emax (H4 (Low Grade Glioma) [10]) | combination Emax (SK-MEL-1 (Melanoma)) | combination Emax [11] | combination Emax [12] | combination Emax [13] | combination Emax (EW-22 (Ewing's Sarcoma)) | combination Emax (MSTO-211H (Mesothelioma) [14]) | combination Emax [15] | combination Emax [16]
Cc1cc2ncnn2cc1Nc1ncc2c(n1)n(C1CCOCC1)c(=O)n2C [AZD7648] + COc1cc([C@@H]2c3cc4c(cc3[C@@H](O[C@@H]3O[C@@H]5CO[C@@H](C)O[C@H]5[C@H](O)[C@H]3O)[C@H]3COC(=O)[C@H]23)OCO4)cc(OC)c1O [Etoposide] (first compound max 10 µM, 7x7, partner max 10 µM) | 0.13 | 0.0976 | 0.102 | 0.0487 | 0.0624 | 0.0364 | 0.867 | 0.649 | 0.524 | 0.926 | 0.486 | 0.756 | 0.558 | 0.854 | 0.883 | 1 | 0.938 | 0.783 | 0.979 | 0.967
C[C@@H](Oc1cc(-c2cnn(C3CCNCC3)c2)cnc1N)c1c(Cl)ccc(F)c1Cl [Crizotinib] + CC1=C(C(=CC=C1)Cl)NC(=O)C2=CN=C(S2)NC3=CC(=NC(=N3)C)N4CCN(CC4)CCO [Dasatinib] (first compound max 10 µM, 7x7, partner max 2 µM) | 0.0243 | 0.0857 | 0.0253 | -0.0118 | 0.0718 | 0.027 | 0.973 | 0.836 | 0.793 | 0.454 | 0.348 | 0.963 | 0.916 | 1 | 0.892 | 0.751 | 0.766 | 0.674 | 0.979 | 0.792
N#Cc1cnc(Nc2cc(NC[C@H]3CNCCO3)c(C(F)(F)F)cn2)cn1 [SRA737] + Nc1ccn([C@@H]2O[C@H](CO)[C@@H](O)C2(F)F)c(=O)n1 [Gemcitabine] (first compound max 10 µM, 7x7, partner max 0.3 µM) | 0.0063 | 0.0511 | -0.0324 | 0.0107 | -0.0082 | 0.0461 | 0.869 | 0.737 | 0.828 | 0.957 | 0.731 | 0.953 | 0.482 | 0.883 | 0.841 | 1 | 0.93 | 0.83 | 1 | 1
C[C@@H](Oc1cc(-c2cnn(C3CCNCC3)c2)cnc1N)c1c(Cl)ccc(F)c1Cl [Crizotinib] + Cn1cnc2c(F)c(Nc3ccc(Br)cc3Cl)c(C(=O)NOCCO)cc21 [Selumetinib] (first compound max 10 µM, 7x7, partner max 10 µM) | 0.0323 | 0.0034 | 0.0179 | -0.0323 | 0.0294 | 0.0132 | 0.783 | 0.619 | 0.899 | 0.331 | 0.0593 | 0.787 | 0.916 | 1 | 0.95 | 0.596 | 0.78 | 0.576 | 0.973 | 0.755
C[C@@H]1COCCN1c1cc(C2([S@](C)(=N)=O)CC2)nc(-c2ccnc3[nH]ccc23)n1 [AZD6738] + C1CC(C1)(C(=O)[O-])C(=O)[O-].N.N.[Pt+2] [Carboplatin] (first compound max 10 µM, 7x7, partner max 10 µM) | 0.0014 | 0.0025 | -0.0513 | -0.0577 | -0.0319 | -0.0128 | 0.89 | 0.548 | 0.566 | 0.779 | 0.52 | 0.708 | 0.32 | 0.923 | 0.673 | 0.767 | 0.851 | 0.45 | 0.996 | 0.922
O=C(c1cc(Cc2n[nH]c(=O)c3ccccc23)ccc1F)N1CCN(C(=O)C2CC2)CC1 [Olaparib] + CC1(C)CCC(CN2CCN(c3ccc(C(=O)NS(=O)(=O)c4ccc(NCC5CCOCC5)c([N+](=O)[O-])c4)c(Oc4cnc5[nH]ccc5c4)c3)CC2)=C(c2ccc(Cl)cc2)C1 [Venetoclax] (first compound max 10 µM, 7x7, partner max 1 µM) | -0.0156 | -0.011 | -0.0377 | -0.0239 | -0.0264 | -0.0425 | 0.179 | 0.15 | 0.122 | 0.162 | 0.179 | 0.267 | 0.151 | 0.109 | 0.175 | 0.452 | 0.921 | 0.0774 | 0.666 | 0.166
C[C@@H]1COCCN1c1cc(C2([S@](C)(=N)=O)CC2)nc(-c2ccnc3[nH]ccc23)n1 [AZD6738] + Nc1ccn([C@@H]2O[C@H](CO)[C@@H](O)C2(F)F)c(=O)n1 [Gemcitabine] (first compound max 10 µM, 7x7, partner max 0.3 µM) | 0.0252 | 0.0184 | -0.0258 | -0.0329 | 0.0098 | 0.0523 | 0.934 | 0.734 | 0.873 | 0.979 | 0.744 | 0.957 | 0.528 | 0.945 | 0.818 | 1 | 0.949 | 0.855 | 1 | 1
C=CCn1c(=O)c2cnc(Nc3ccc(N4CCN(C)CC4)cc3)nc2n1-c1cccc(C(C)(C)O)n1 [AZD1775] + Nc1ccn([C@@H]2O[C@H](CO)[C@@H](O)C2(F)F)c(=O)n1 [Gemcitabine] (first compound max 1 µM, partner max 0.3 µM) | -0.0342 | -0.0148 | -0.0001 | 0.0828 | 0.0226 | 0.0328 | 0.751 | 0.661 | 0.879 | 0.916 | 0.747 | 0.949 | 0.422 | 0.918 | 0.887 | 1 | 0.921 | 0.815 | 0.995 | 1
O=C(c1cc(Cc2n[nH]c(=O)c3ccccc23)ccc1F)N1CCN(C(=O)C2CC2)CC1 [Olaparib] + Cc1c2c(nn1C)CSCc1cc(n(C)n1)CSc1cc(c3ccccc3c1)OCCCc1c(C(=O)O)n(C)c3c-2c(Cl)ccc13 [AZD5991] (first compound max 10 µM, 7x7, partner max 1 µM) | -0.0086 | 0.0256 | -0.0416 | -0.0253 | -0.029 | -0.0409 | 0.234 | 0.0992 | 0.158 | 0.109 | 0.156 | 0.393 | 0.127 | 0.116 | 0.178 | 0.996 | 0.93 | 0.0433 | 0.9 | 0.964
O=C(c1cc(Cc2n[nH]c(=O)c3ccccc23)ccc1F)N1CCN(C(=O)C2CC2)CC1 [Olaparib] + CN(CC[C@H](CSC1=CC=CC=C1)NC2=C(C=C(C=C2)S(=O)(=O)NC(=O)C3=CC=C(C=C3)N4CCC(CC4)[C@H](C5=CC=CC=C5C6=CC=C(C=C6)Cl)O)S(=O)(=O)C(F)(F)F)CCO [AZD4320] (first compound max 10 µM, 7x7, partner max 1 µM) | -0.0103 | 0.0106 | -0.009 | -0.0239 | -0.0173 | -0.0242 | 0.401 | 0.431 | 0.303 | 0.466 | 0.482 | 0.389 | 0.42 | 0.505 | 0.687 | 0.876 | 0.988 | 0.456 | 0.914 | 0.568
O=C(c1cc(Cc2n[nH]c(=O)c3ccccc23)ccc1F)N1CCN(C(=O)C2CC2)CC1 [Olaparib] + COc1nnc2ccc(N3CCC(c4ccc(OCCN5CCN(C)C(=O)[C@H]5C)cc4)CC3)nn12 [AZD5153] (first compound max 10 µM, 7x7, partner max 1 µM) | -0.0206 | -0.0248 | -0.0579 | -0.071 | -0.0085 | -0.0634 | 0.47 | 0.374 | 0.428 | 0.559 | 0.412 | 0.658 | 0.303 | 0.76 | 0.561 | 0.949 | 0.909 | 0.246 | 0.881 | 0.57
C[C@@H](Nc1cc(F)cc(F)c1)c1cc(C(=O)N(C)C)cc2c(=O)cc(N3CCOCC3)oc12 [AZD8186] + C1CN(CCC1(C(=O)N[C@@H](CCO)C2=CC=C(C=C2)Cl)N)C3=NC=NC4=C3C=CN4 [AZD5363] (first compound max 10 µM, 7x7, partner max 10 µM) | -0.0362 | -0.0049 | -0.0906 | -0.024 | 0.0272 | 0.0492 | 0.429 | 0.264 | 0.656 | 0.344 | 0.262 | 0.597 | 0.154 | 0.226 | 0.557 | 1 | 0.45 | 0.265 | 0.485 | 0.521
Cc1c2c(nn1C)CSCc1cc(n(C)n1)CSc1cc(c3ccccc3c1)OCCCc1c(C(=O)O)n(C)c3c-2c(Cl)ccc13 [AZD5991] + CC(=O)O[C@H]1C(=O)[C@@]2(C)[C@H]([C@H](OC(=O)c3ccccc3)[C@]3(O)C[C@H](OC(=O)[C@H](O)[C@@H](NC(=O)c4ccccc4)c4ccccc4)C(C)=C1C3(C)C)[C@]1(OC(C)=O)CO[C@@H]1C[C@@H]2O [Paclitaxel] (first compound max 1 µM, 7x7, partner max 3 µM) | -0.0211 | 0.0003 | 0.12 | -0.0091 | 0.0035 | -0.0154 | 1 | 0.652 | 0.884 | 0.884 | 0.571 | 0.995 | 0.21 | 0.881 | 0.994 | 1 | 0.871 | 0.391 | 1 | 1
